A short description of series [1]: (§1) Partition coefficient (logD7.4). The note with it: octanol/water, pH 7.4.
Test in series [2]: not given
The source holds these as a separate data set.

Series [3] is filed under the species Rattus norvegicus.
Series [4] in a line: physchem. The note with it: octanol/water.
Series [5] in a line: physchem. The note with it: octanol/water. This is another data set of the same source.
The nature of series [6]: (§2) Partition coefficient (logD) (HPLC). It is filed as physicochemical. As to conditions: octanol/water.
A short description of series [7]: as §1. The note with it: octanol/water, pH 7.4. The source holds these as a separate data set.
A short description of series [8]: (§3) logD (measured by HPLC) (as log k'). It is filed as ADME.
Series [9] is described as follows: as §3. It is filed as ADME. The source holds these as a separate data set.
Test in series [10]: not given
The source holds these as a separate data set.

Test in series [11]: not given
The source holds these as a separate data set.

Test in series [12]: not given
The source holds these as a separate data set.

The species entered for series [13] is Rattus norvegicus. This is another data set of the same source.
For series [14], the species on record is Rattus norvegicus. This is another data set of the same source.
The nature of series [15]: physchem. The note with it: octanol/water, pH 7.4.
The nature of series [16]: as §2. It is filed as physicochemical. As to conditions: octanol/water. This is another data set of the same source.
Test in series [17]: not given
The source holds these as a separate data set.

Test in series [18]: not given
This is another data set of the same source.

Test in series [19]: not given
This is another data set of the same source.

Test in series [20]: not given
The source holds these as a separate data set.

For series [21] the following is noted: octanol/water.
Description: Partition coefficient (logD, measured by HPLC, log k')
Test in series [22]: not given
The source holds these as a separate data set.

Test in series [23]: not given
This is another data set of the same source.

Test in series [24]: not given
This is another data set of the same source.

Test in series [25]: not given
This is another data set of the same source.

Test in series [26]: not given
The source holds these as a separate data set.

The species named for series [27] is Rattus norvegicus. As to the kind of experiment: Log (1/ED50) was measured as histamine releasing activity in rat mast cells; log(1/ED50*10e-3). It is filed as functional.
The nature of series [28]: Dissociation constant (pKa). As to conditions: octanol/water, pH 7.4.
Series [29] is described as follows: as §1. It is filed as physicochemical. As to conditions: octanol/water, pH 7.4.
Test in series [30]: not given
This is another data set of the same source.

A short description of series [31]: physchem. The note with it: octanol/water. The source holds these as a separate data set.
Series [32] is described as follows: physchem. The note with it: octanol/water. The source holds these as a separate data set.
Series [33] can be described thus: The compound was tested for its ability to inhibit Na+/K+ ATPase in rat brain. It is filed as tissue-based.
For series [34], the species on record is Rattus norvegicus. The series can be described thus: Apparent partition coefficient was measured as histamine releasing activity in rat mast cells.
The conditions of series [35]: octanol/water. The source holds these as a separate data set.
The conditions of series [36]: octanol/water. The source holds these as a separate data set.
In series [37] the target is Serum albumin (Bos taurus) (UniProt P02769). The series can be described thus: BSA binding (log K).
Series [38] can be described thus: as §3. It is filed as ADME. The source holds these as a separate data set.
Series [39] is described as follows: as §3. It is filed as ADME. This is another data set of the same source.
The species entered for series [40] is Rattus norvegicus. The series can be described thus: pKa value was measured by water/octanol using shake-flask method.
Test in series [41]: not given
The source holds these as a separate data set.

Series [42] can be described thus: as §2. It is filed as physicochemical. As to conditions: octanol/water. This is another data set of the same source.
For series [43], the species on record is Rattus norvegicus. This is another data set of the same source.

Usually logD stands for the decadic logarithm of the distribution of all forms, ionised or not, between an organic phase and buffer at a given pH. The low end stands for a more hydrophilic compound, the high end for a more lipophilic compound. Consider `CC(=O)c1ccc2c(c1)N(CCCN1CCN(CCO)CC1)c1ccccc1S2` [ACETOPHENAZINE], for which the “Log k'” value was 0.808. Further, the logD in series [1] was determined as 2.62. For the same compound, the “Log k'” value in series [2] is reported as 1.301. Further, in the series filed under Rattus norvegicus [3], the “Log 1/ED50” value is 2.12. The compound further had a logD in the series “physchem [4]” of 0.728. In the series “physchem [5]”, this compound had a logD of 0.366.
As to `CN(C)CCC=C1c2ccccc2CCc2ccccc21` [AMITRIPTYLINE], the results for the logD (in [6]; in series [1]; in “physchem [15]”) were 2.83, 2.83 and 2.5, respectively. In addition, the pKa in series [7] was determined as 9.4. Besides, the “Log k'” value in [8] was 1.214; in series [9], 0.753; in [10], 1.419; in series [11] it was 1.279; in [12], 1.264; in [2] it was 1.641. In addition, the “Log 1/ED50” value in the series filed under Rattus norvegicus [13] is on record as 1.85. The Papp in the series listed under Rattus norvegicus [14] came to 2.3.
In the case of `COc1ccccc1` [ANISOLE], the “Log k'” value was found to be 0.885. Moreover, in series [6], the logD is 0.353. The compound also came in with a logD in series [16] of 0.872. For the same compound, in series [1], the logD came out at 2.09. Also, the logD in series [17] was determined as 2.086. Further, in series [18], the “Log k'” value stood at 0.264. The “Log k'” value in series [12] worked out at 0.381. Further, the “Log k'” value in [19] is on record as 0.332. In addition, the “Log k'” value in series [20] amounted to 0.928.
As to `CN(C)CCCN1c2ccccc2Sc2ccc(Cl)cc21` [CHLORPROMAZINE], the logD came to 3.221 in series [1] and 3.17 in the series “physchem [15]”. Besides, the “Log k'” value worked out at 1.911 in [8]; 2.061 in series [21]; 1.751 in [11]; 2.144 in [22]; 1.911 in series [23]; 1.667 in series [24]. Further, the “Log k'” value in [25] worked out at 1.632; in [26], 1.086; in series [19], 1.656; in series [20], 2.144. For the same compound, the Papp in the series listed under Rattus norvegicus [14] was determined as 2.92.
In the case of `CN(C)CC/C=C1/c2ccccc2Sc2ccc(Cl)cc21` [CHLORPROTHIXENE], the “Log k'” value in series [8] was determined as 2.142. This compound also had a Histamine release in the series listed under Rattus norvegicus [27] of 2.57. In the series filed under Rattus norvegicus [14], this compound had a Papp of 2.67.
With `CN(C)CCCN1c2ccccc2CCc2ccc(Cl)cc21` [CLOMIPRAMINE], the “Log k'” value turned out to be 1.593. Besides, the logD in series [1] came out at 3.24. In addition, the “Log k'” value in series [18] is 1.479. Further, the “Log k'” value in series [12] came out at 1.041. In [2], the “Log k'” value was found to be 2.072. The “Log 1/ED50” value in the series filed under Rattus norvegicus [3] was 2.22. The same compound yielded a Papp in the series listed under Rattus norvegicus [14] of 2.8. In series [28], the pKa is listed as 9.5.
As for `CN(C)CCC=C1c2ccccc2COc2ccccc21` [DOXEPIN], the logD in [1] is 2.22; in series [29], 2.22; in the series “physchem [15]”, 2.2; in “physchem [31]” it was 2.36; in “physchem [32]” it was 2.32. The “Log k'” value in series [21] is reported as 1.044; in series [10], 1.025; in [11], 0.778; in series [23], 1.025; in series [24], 0.642; in series [25], 0.886. In addition, the “Log k'” value in series [26] is given as 0.33; in series [19], 0.632; in series [20], 1.115; in [30], 1.086.
On to `OCCN1CCN(CCCN2c3ccccc3Sc3ccc(Cl)cc32)CC1` [PERPHENAZINE], for which the “Log k'” value was 1.749. The compound further returned a pKa in series [7] of 7.8. In series [33], this compound had an Activity of 0.09. Moreover, the Papp in the series filed under Rattus norvegicus [34] is 2.95. For the same compound, the log distribution coefficient (logD) in series [35] was 1.473. The “Log k'” value in series [2] came out at 2.287. Further, the “Log 1/ED50” value in the series listed under Rattus norvegicus [3] was 2.63. Besides, the logD in series [36] is 1.1. This compound returned a Log K in [37] of 3.57.
For the compound `CC(CN1c2ccccc2Sc2ccccc21)N(C)C` (configuration not stated) [PROMETHAZINE], the logD in [1] was 2.849; in the series “physchem [15]” it was 2.79. Also, the “Log k'” value was 1.252 in series [38]; 0.757 in series [39]; 1.512 in series [8]; 1.595 in series [21]; 1.271 in series [11]; 1.176 in [41]. In addition, the “Log k'” value in [22] is recorded as 1.669; in series [23], 1.512; in series [19], 1.172; in series [20], 1.67. For the same compound, the Activity in series [33] was -0.37. This compound came in with a pKa in the series listed under Rattus norvegicus [40] of 9.4. The “Log 1/ED50” value in the series filed under Rattus norvegicus [3] worked out at 1.82.
As to `CCN(CC)CCOc1ccc2c(c1)C(=O)c1cc(OCCN(CC)CC)ccc1-2` [TILORONE], the logD in [1] is 1.47; in series [29], 1.47; in the series “physchem [15]”, 1.31; in the series “physchem [31]”, 1.44; in the series “physchem [32]” it was 1.48. The “Log k'” value is reported as 0.051 in [38]; -0.412 in series [39]; 0.183 in [21]; 0.701 in series [10]; 0.325 in series [11]; 0.113 in [41]. The “Log k'” value in [22] is 0.229; in [23], 0.701; in series [19], 0.007; in [20], 0.234.
With `CN1CCN(CCCN2c3ccccc3Sc3ccc(C(F)(F)F)cc32)CC1` [TRIFLUOPERAZINE], the “Log k'” value came out at 2.58. For the same compound, in series [6], the logD stood at 1.77. In addition, the logD in series [42] was 1.96. In series [7], this compound displayed a pKa of 8.1. For the same compound, the Activity in series [33] stood at 1.69. In series [2], the “Log k'” value was 3.076. Moreover, in the series filed under Rattus norvegicus [43], the Papp is 3.9.

For the origin of these results see ChEMBL document CHEMBL1121794, “Octanol-physiological buffer distribution coefficients of lipophilic amines by reversed-phase high-performance liquid chromatography and their correlation with biological activity” (J Med Chem, 1981).
